Data reported in patent US20230278983A1, “INDOLE DERIVATIVES AND USES THEREOF FOR TREATING A CANCER” (Universite Claude Bernard Lyon 1, priority 2020, published 2023).

Molecular target: CK2 (Homo sapiens (Human), UniProt P68400)
Assay: Radiometric CK2 kinase assay
Type: biochemical
Conditions: not given

Chain of CK2 (P68400 whole entry): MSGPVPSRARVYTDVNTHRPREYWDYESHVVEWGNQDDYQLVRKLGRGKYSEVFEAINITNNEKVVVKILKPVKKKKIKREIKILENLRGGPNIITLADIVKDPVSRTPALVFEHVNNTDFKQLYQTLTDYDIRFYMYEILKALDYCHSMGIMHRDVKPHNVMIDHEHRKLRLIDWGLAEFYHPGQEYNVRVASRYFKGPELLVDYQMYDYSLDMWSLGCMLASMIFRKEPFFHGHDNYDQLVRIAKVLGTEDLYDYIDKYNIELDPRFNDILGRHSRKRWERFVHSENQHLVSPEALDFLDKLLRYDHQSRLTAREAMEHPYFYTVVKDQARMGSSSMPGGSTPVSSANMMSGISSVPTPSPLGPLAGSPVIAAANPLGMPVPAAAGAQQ

Row | SMILES | IC50
1 | CC(C)COC(=O)c1[nH]c2ccc(F)cc2c1-c1cn(CC2CCN(CCNS(=O)(=O)c3ccc(-c4cccnc4N4CCCC4)cc3)CC2)nn1 [AB1073, isobutyl 5-fluoro-3-(1-((1-(2-((4-(2-(pyrrolidin-1-yl)pyridin-3-yl)phenyl)sulfonamido)ethyl)piperidin-4-yl)methyl)-1H-1,2,3-triazol-4-yl)-1H-indole-2-carboxylate] | 18 nM
2 | CC(C)COC(=O)c1[nH]c2ccc(Cl)cc2c1-c1cn(CC2CCN(CCNS(=O)(=O)c3ccc(C(F)(F)F)cc3)CC2)nn1 [AB601, Isobutyl 5-chloro-3-(1-((1-(2-((4-(trifluoromethyl)phenyl)sulfonamido)ethyl)piperidin-4-yl)methyl)-1H-1,2,3-triazol-4-yl)-1H-indole-2-carboxylate] | 1400 nM
3 | CCc1ccc(S(=O)(=O)NCCN2CCC(Cn3cc(-c4c(C(=O)OCC(C)C)[nH]c5ccc(F)cc45)nn3)CC2)cc1 [AB556, Isobutyl 3-(1-((1-(2-((4-ethylphenyl)sulfonamido)ethyl)piperidin-4-yl)methyl)-1H-1,2,3-triazol-4-yl)-5-fluoro-1H-indole-2-carboxylate] | 170 nM
4 | CC(C)COC(=O)c1[nH]c2ccc(Cl)cc2c1-c1cn(CC2CCN(CCNS(=O)(=O)c3ccc(Cl)cc3)CC2)nn1 [AB499, Isobutyl 5-chloro-3-(1-((1-(2-((4-chlorophenyl)sulfonamido)ethyl)piperidin-4-yl)methyl)-1H-1,2,3-triazol-4-yl)-1H-indole-2-carboxylate] | 670 nM
5 | CCOC(=O)c1[nH]c2ccc(F)cc2c1-c1cn(CC2CCN(CCNS(=O)(=O)c3ccc4ccccc4c3)CC2)nn1 [AB536, Ethyl 5-fluoro-3-(1-((1-(2-(naphthalene-2-sulfonamido)ethyl)piperidin-4-yl)methyl)-1H-1,2,3-triazol-4-yl)-1H-indole-2-carboxylate] | 800 nM
6 | O=S(=O)(NCCN1CCC(Cn2cc(-c3c[nH]c4ccccc34)nn2)CC1)c1ccc(Cl)cc1 [AB152, N-(2-(4-((4-(1H-Indol-3-yl)-1H-1,2,3-triazol-1-yl)methyl)piperidin-1-yl)ethyl)-4-chlorobenzenesulfonamide] | 35000 nM
7 | CC(C)COC(=O)c1[nH]c2ccc(Cl)cc2c1-c1cn(CC2CCN(CCNS(=O)(=O)c3ccc4ccccc4c3)CC2)nn1 [AB599, Isobutyl 5-chloro-3-(1-((1-(2-(naphthalene-2-sulfonamido)ethyl)piperidin-4-yl)methyl)-1H-1,2,3-triazol-4-yl)-1H-indole-2-carboxylate] | 3200 nM
8 | CCc1ccc(S(=O)(=O)NCCN2CCC(Cn3cc(-c4c(C(=O)OCCO)[nH]c5ccc(F)cc45)nn3)CC2)cc1 [AB597, 2-Hydroxyethyl 3-(1-((1-(2-((4-ethylphenyl)sulfonamido)ethyl)piperidin-4 yl)methyl)-1H-1,2,3-triazol-4-yl)-5-fluoro-1H-indole-2-carboxylate] | 1600 nM
9 | CCC(=O)c1[nH]c2ccc(F)cc2c1-c1cn(CC2CCN(CCNS(=O)(=O)c3ccc(-c4c(O)cccc4F)cc3)CC2)nn1 [AB1415, 2′-fluoro-N-(2-(4-((4-(5-fluoro-2-propionyl-1H-indol-3-yl)-1H-1,2,3-triazol-1-yl)methyl)piperidin-1-yl)ethyl)-6′-hydroxy-[1,1′-biphenyl]-4-sulfonamide] | 50 nM
10 | CCCCC(=O)c1[nH]c2ccc(F)cc2c1-c1cn(CC2CCN(CCNS(=O)(=O)c3ccc(CC(C)C)cc3)CC2)nn1 [AB1145, N-(2-(4-((4-(5-fluoro-2-pentanoyl-1H-indol-3-yl)-1H-1,2,3-triazol-1-yl)methyl)piperidin-1-yl)ethyl)-4-isobutylbenzenesulfonamide] | 130 nM
11 | CC(=O)c1[nH]c2ccc(F)cc2c1-c1cn(C[C@H]2CCN(CCNS(=O)(=O)c3ccc(CC(C)C)cc3)C2)nn1 [AB1318] | 300 nM
12 | CCC(=O)c1[nH]c2ccc(F)cc2c1-c1cn(CC2CCN(CCNS(=O)(=O)c3ccc(-c4c(OC)cccc4OC)cc3)CC2)nn1 [AB1416, N-(2-(4-((4-(5-fluoro-2-propionyl-1H-indol-3-yl)-1H-1,2,3-triazol-1-yl)methyl)piperidin-1-yl)ethyl)-2′,6′-dimethoxy-[1,1′-biphenyl]-4-sulfonamide] | 100 nM
13 | CC(C)COC(=O)c1[nH]c2ccc(F)cc2c1-c1cn(CC2CCN(CCNS(=O)(=O)c3ccc4ccccc4c3)CC2)nn1 [AB598, Isobutyl 5-fluoro-3-(1-((1-(2-(naphthalene-2-sulfonamido)ethyl)piperidin-4-yl)methyl)-1H-1,2,3-triazol-4-yl)-1H-indole-2-carboxylate] | 510 nM
14 | CC(=O)c1[nH]c2ccc(F)cc2c1-c1cn(CC2CCN(CCNS(=O)(=O)c3ccc(-c4ccccc4C(F)(F)F)cc3)CC2)nn1 [AB1394, N-(2-(4-((4-(2-acetyl-5-fluoro-1H-indol-3-yl)-1H-1,2,3-triazol-1-yl)methyl)piperidin-1-yl)ethyl)-2′-(trifluoromethyl)-[1,1′-biphenyl]-4-sulfonamide] | 23 nM
15 | CC(C)COC(=O)c1[nH]c2ccc(F)cc2c1-c1cn(CC2CCN(CCNS(=O)(=O)c3ccc(Cl)cc3)CC2)nn1 [AB498, Isobutyl 3-(1-((1-(2-((4-chlorophenyl)sulfonamido)ethyl)piperidin-4-yl)methyl)-1H-1,2,3-triazol-4-yl)-5-fluoro-1H-indole-2-carboxylate] | 830 nM

Same assay, conditions: compound at 0.05 μM; ATP 10 μM

Row | SMILES | inhibition at 0.05 µM
16 | O=C(c1[nH]c2ccc(F)cc2c1-c1cn(CC2CCN(CCNS(=O)(=O)c3ccc(-c4cccnc4Cl)cc3)CC2)nn1)C1CC1 [AB1232, 4-(2-chloropyridin-3-yl)-N-(2-(4-((4-(2-(cyclopropanecarbonyl)-5-fluoro-1H-indol-3-yl)-1H-1,2,3-triazol-1-yl)methyl)piperidin-1-yl)ethyl)benzenesulfonamide] | 16%

Same assay, conditions: compound at 0.10 μM; ATP 10 μM

Row | SMILES | inhibition at 0.1 µM
17 | CC(=O)c1[nH]c2ccc(F)cc2c1-c1cn(CC2CN(CCNS(=O)(=O)c3ccc(CC(C)C)cc3)C2)nn1 [AB1404, N-(2-(3-((4-(2-acetyl-5-fluoro-1H-indol-3-yl)-1H-1,2,3-triazol-1-yl)methyl)azetidin-1-yl)ethyl)-4-isobutylbenzenesulfonamide] | 20%

Same assay, conditions: compound at 1 μM; ATP 10 μM

Row | SMILES | inhibition at 1 µM
18 | CC(C)COC(=O)c1[nH]c2ccc(F)cc2c1-c1cn(CC2CCN(Cc3ccc(-c4ccc5[nH]ccc5c4)c(Cl)c3)CC2)nn1 [AB753, Isobutyl 3-(1-((1-(3-chloro-4-(1H-indol-5-yl)benzyl)piperidin-4-yl)methyl)-1H-1,2,3-triazol-4-yl)-5-fluoro-1H-indole-2-carboxylate] | 18%
19 | COCc1ccccc1-c1ccc(C(=O)N2CCC(Cn3cc(-c4c(C(=O)OCC(C)C)[nH]c5ccc(F)cc45)nn3)CC2)cc1Cl [AB681, Isobutyl 3-(1-((1-(2-chloro-2′-(methoxymethyl)-[1,1′-biphenyl]-4-carbonyl)piperidin-4-yl)methyl)-1H-1,2,3-triazol-4-yl)-5-fluoro-1H-indole-2-carboxylate] | 18%
20 | CC(C)COC(=O)c1[nH]c2ccc(F)cc2c1-c1cn(CC2CCN(Cc3ccc(-c4cccc5[nH]ccc45)c(Cl)c3)CC2)nn1 [AB690, Isobutyl 3-(1-((1-(3-chloro-4-(1H-indol-4-yl)benzyl)piperidin-4-yl)methyl)-1H-1,2,3-triazol-4-yl)-5-fluoro-1H-indole-2-carboxylate] | 31%
21 | CC(C)COC(=O)c1[nH]c2ccc(F)cc2c1-c1cn(CC2CCN(Cc3ccc(-c4cccc5[nH]ccc45)c(C(C)C)c3)CC2)nn1 [AB703, Isobutyl 3-(1-((1-(4-(1H-indol-4-yl)-3-isopropylbenzyl)piperidin-4-yl)methyl)-1H-1,2,3-triazol-4-yl)-5-fluoro-1H-indole-2-carboxylate] | 8%
22 | CC(C)COC(=O)c1[nH]c2ccc(F)cc2c1-c1cn(CC2CCN(Cc3ccc(OCC(C)C)c(Cl)c3)CC2)nn1 [AB760, Isobutyl 3-(1-((1-(3-chloro-4-isobutoxybenzyl)piperidin-4-yl)methyl)-1H-1,2,3-triazol-4-yl)-5-fluoro-1H-indole-2-carboxylate] | 15%
23 | CC(C)COC(=O)c1[nH]c2ccc(F)cc2c1-c1cn(CC2CCN(Cc3ccc(Oc4cccc(C(C)C)c4)c(C(C)C)c3)CC2)nn1 [AB713, Isobutyl 5-fluoro-3-(1-((1-(3-isopropyl-4-(3-isopropylphenoxy)benzyl)piperidin-4-yl)methyl)-1H-1,2,3-triazol-4-yl)-1H-indole-2-carboxylate] | 5%
24 | CC(C)COC(=O)c1[nH]c2ccc(F)cc2c1-c1cn(CC2CCN(C(=O)c3ccc(-c4cccc5[nH]ccc45)c(C(F)(F)F)c3)CC2)nn1 [AB756, Isobutyl 3-(1-((1-(4-(1H-indol-4-yl)-3-(trifluoromethyl)benzoyl)piperidin-4-yl)methyl)-1H-1,2,3-triazol-4-yl)-5-fluoro-1H-indole-2-carboxylate] | 19%
25 | CC(C)COC(=O)c1[nH]c2ccc(F)cc2c1-c1cn(CC2CCN(S(=O)(=O)c3ccc4c(c3)OCC4)CC2)nn1 [AB939, isobutyl 3-(1-((1-((2,3-dihydrobenzofuran-6-yl)sulfonyl)piperidin-4-yl)methyl)-1H-1,2,3-triazol-4-yl)-5-fluoro-1H-indole-2-carboxylate] | 4%

Same assay, conditions: inhibition of CK2 activity; ATP 10 μM

Row | SMILES | IC50
26 | CC(C)COC(=O)c1[nH]c2ccc(F)cc2c1-c1cn(CC2CCN(CCNS(=O)(=O)Cc3cccc(Br)c3)CC2)nn1 [AB1031, isobutyl 3-(1-((1-(2-(((3-bromophenyl)methyl)sulfonamido)ethyl)piperidin-4-yl)methyl)-1H-1,2,3-triazol-4-yl)-5-fluoro-1H-indole-2-carboxylate] | 150 nM
27 | CC(C)COC(=O)c1[nH]c2ccc(F)cc2c1-c1cn(CC2CCN(CCNS(=O)(=O)c3ccc(Oc4ccccc4)cc3)CC2)nn1 [AB933, isobutyl 5-fluoro-3-(1-((1-(2-((4-phenoxyphenyl)sulfonamido)ethyl)piperidin-4-yl)methyl)-1H-1,2,3-triazol-4-yl)-1H-indole-2-carboxylate] | 62 nM
28 | CCC(=O)c1[nH]c2ccc(F)cc2c1-c1cn(CC2CCN(CCNS(=O)(=O)Cc3ccc(C(F)(F)F)cc3)CC2)nn1 [AB1417, N-(2-(4-((4-(5-fluoro-2-propionyl-1H-indol-3-yl)-1H-1,2,3-triazol-1-yl)methyl)piperidin-1-yl)ethyl)-1-(4-(trifluoromethyl)phenyl)methanesulfonamide] | 120 nM
